From the supplement of paper PMC10307832

Legend:
Assay in all cases: relative viability (nuclei count vs DMSO), 5 days (fraction); higher = more cells survive
[1] = compound: CC1=CC(=NN1)NC2=CC(=NC(=N2)/C=C/C3=CC=CC=C3)N4CCN(CC4)C + NC(=O)Nc1cc(-c2cccc(F)c2)sc1C(=O)N[C@H]1CCCNC1 [AZD7762] (partner 0.2 µM)
Procedure, shortened: (§1)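 For relative viability, nuclei counts in treated wells were divided by those in vehicle wells. Lung cancer cell lines had been pin-tool dosed in 1536-well plates the day after seeding and cultured for 5 days, then fixed and stained in one step (final 0.05% Triton X-100, 1% formaldehyde, 1 ug/ml Hoechst) and imaged at 4×. Doses were one drug alone or a fixed anchor-drug dose plus five library-drug doses (not always all listed) in √10 steps, and values are duplicate-plate medians.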

Obatoclax + Pemetrexed = compound: COC1=CC(c2cc3ccccc3[nH]2)=N/C1=C\c1[nH]c(C)cc1C [Obatoclax] + Nc1nc2[nH]cc(CCc3ccc(C(=O)N[C@@H](CCC(=O)O)C(=O)O)cc3)c2c(=O)[nH]1 [Pemetrexed] (partner 0.2 µM)
Procedure, shortened: as §1

Bortezomib + Palbociclib = compound: CC(C)C[C@H](NC(=O)[C@H](Cc1ccccc1)NC(=O)c1cnccn1)B(O)O [Bortezomib] + CC(=O)c1c(C)c2cnc(Nc3ccc(N4CCNCC4)cn3)nc2n(C2CCCC2)c1=O [Palbociclib] (partner 0.5 µM)
Procedure, shortened: as §1

Obatoclax + Foretinib = compound: COC1=CC(c2cc3ccccc3[nH]2)=N/C1=C\c1[nH]c(C)cc1C [Obatoclax] + COc1cc2c(Oc3ccc(NC(=O)C4(C(=O)Nc5ccc(F)cc5)CC4)cc3F)ccnc2cc1OCCCN1CCOCC1 [Foretinib] (partner 0.25 µM)
Procedure, shortened: as §1

Cell Line | relative viability ([1]; first compound 0.08 µM) | relative viability ([1]; first compound 0.253 µM) | relative viability ([1]; first compound 0.8 µM) | relative viability ([1]; first compound 2.53 µM) | relative viability ([1]; first compound 8 µM) | relative viability (Obatoclax + Pemetrexed; first compound 0.01 µM) | relative viability (Obatoclax + Pemetrexed; first compound 0.03162 µM) | relative viability (Obatoclax + Pemetrexed; first compound 0.1 µM) | relative viability (Obatoclax + Pemetrexed; first compound 0.3162 µM) | relative viability (Obatoclax + Pemetrexed; first compound 1 µM) | relative viability (Bortezomib + Palbociclib; first compound 0.0002 µM) | relative viability (Bortezomib + Palbociclib; first compound 0.000632 µM) | relative viability (Bortezomib + Palbociclib; first compound 0.002 µM) | relative viability (Bortezomib + Palbociclib; first compound 0.006325 µM) | relative viability (Bortezomib + Palbociclib; first compound 0.02 µM) | relative viability (Obatoclax + Foretinib; first compound 0.01 µM) | relative viability (Obatoclax + Foretinib; first compound 0.03162 µM) | relative viability (Obatoclax + Foretinib; first compound 0.1 µM) | relative viability (Obatoclax + Foretinib; first compound 0.3162 µM) | relative viability (Obatoclax + Foretinib; first compound 1 µM)
NCI-H1755 | 0.448 | 0.471 | 0.396 | 0.296 | 0.184 | 0.444 | 0.612 | 0.433 | 0.413 | 0.452 | 0.426 | 0.438 | 0.452 | 0.263 | 0.248 | 0.913 | 0.937 | 0.886 | 0.908 | 0.961
PC-14 | 0.346 | 0.446 | 0.354 | 0.28 | 0.0653 | 0.129 | 0.147 | 0.125 | 0.149 | 0.109 | 0.53 | 0.506 | 0.412 | 0.045 | 0.052 | 0.858 | 0.945 | 0.917 | 0.872 | 0.661
NCI-H322M | 0.555 | 0.6 | 0.615 | 0.403 | 0.302 | 0.683 | 0.609 | 0.632 | 0.655 | 0.625 | 0.486 | 0.448 | 0.463 | 0.441 | 0.404 | 0.997 | 1.02 |  | 0.853 | 0.696
NCI-H1666 | 0.892 | 0.786 | 0.811 | 0.701 | 0.501 | 0.835 | 0.775 | 0.823 | 0.725 | 0.633 | 0.62 | 0.699 | 0.608 | 0.569 | 0.472 | 0.952 | 0.989 | 0.959 | 0.482 | 0.384
A-427 | 0.83 | 0.683 | 0.713 | 0.238 | 0.163 | 0.95 | 0.965 | 0.74 | 0.909 | 0.75 | 0.508 | 0.469 | 0.53 | 0.272 | 0.169 | 1.16 | 0.989 | 1.01 | 0.972 | 0.984
NCI-H358 | 0.574 | 0.528 | 0.424 | 0.195 | 0.154 | 0.159 | 0.185 | 0.166 | 0.192 | 0.14 | 0.158 | 0.11 | 0.0987 | 0.0826 | 0.0983 | 0.664 | 0.847 | 0.668 | 0.415 | 0.311
NCI-H1651 | 0.437 | 0.483 | 0.463 | 0.335 | 0.0886 | 0.591 | 0.439 | 0.528 | 0.373 | 0.603 | 0.505 | 0.504 | 0.401 | 0.113 | 0.103 | 0.766 | 0.734 | 0.774 | 0.47 | 0.42
201T | 0.667 | 0.526 | 0.628 | 0.538 | 0.53 | 0.339 | 0.315 | 0.282 | 0.34 | 0.359 | 0.339 | 0.367 | 0.37 | 0.33 | 0.218 | 1.09 | 1.12 | 1.1 | 1.09 | 0.768
NCI-H460 | 0.6 | 0.72 | 0.681 | 0.372 | 0.0422 | 0.0642 | 0.0576 | 0.0607 | 0.0693 | 0.0648 | 0.181 | 0.283 | 0.155 | 0.0455 | 0.0161 | 0.993 | 1.01 | 0.947 | 0.456 | 0.157
NCI-H2342 | 0.368 | 0.535 | 0.589 | 0.371 | 0.256 | 0.836 | 0.775 | 0.683 | 0.641 | 0.757 | 0.578 | 0.502 | 0.54 | 0.534 | 0.357 | 1.05 | 0.947 | 1.09 | 1.04 | 1.03
HARA | 0.386 | 0.351 | 0.412 | 0.193 | 0.154 | 0.236 | 0.293 | 0.249 | 0.262 | 0.303 | 0.185 | 0.253 | 0.288 | 0.166 | 0.152 | 0.966 | 0.93 | 0.91 | 0.935 | 1
NCI-H1793 | 0.412 | 0.373 | 0.452 | 0.129 | 0.0904 | 0.91 | 0.924 | 0.727 | 0.838 | 0.878 | 0.336 |  | 0.375 | 0.205 | 0.143 | 0.602 | 0.743 | 0.758 | 0.609 | 0.675
SW 900 | 0.534 | 0.526 | 0.649 | 0.314 | 0.104 | 0.494 | 0.303 | 0.527 | 0.48 | 0.446 | 0.504 | 0.37 | 0.203 | 0.2 | 0.195 | 0.895 | 0.743 | 0.759 | 0.536 | 0.738
NCI-H2126 | 0.982 | 1.06 | 1.02 | 0.825 | 0.873 | 0.661 | 0.62 | 0.703 | 0.704 | 0.649 | 0.365 | 0.349 | 0.369 | 0.328 | 0.208 | 1.11 | 1.1 | 1.12 | 1.16 | 1.13
HCC-827 | 0.188 | 0.199 | 0.217 | 0.197 | 0.0973 | 0.241 | 0.275 | 0.247 | 0.17 | 0.278 | 0.496 | 0.626 | 0.467 | 0.197 | 0.137 | 1.01 | 1.04 | 1.08 | 0.964 | 1.05
BEN | 0.734 | 0.726 | 0.667 | 0.508 | 0.283 | 0.852 | 0.534 | 0.44 | 0.618 | 0.762 | 0.443 | 0.461 | 0.489 | 0.445 | 0.236 | 0.864 | 0.614 |  | 0.631 | 0.678
